# Experimental data reported in patent US20260223837A1, “NATURAL LIPID PARTICLE FORMULATIONS FOR AGRICULTURAL APPLICATIONS” (INVAIO SCIENCES, INC., priority 2023, published 2026).
# What was measured:
# [1] = tested on: Colorado Potato Beetle (CPB); assay: Tomato seedling root uptake assay followed by CPB infestation; conditions: 160 ug/ml in DCM
# Tomato Horn Worm (THW) = assay: Tomato seedling root uptake assay followed by THW infestation; conditions: in vivo
# Protocol: Tomato seeds (N=14) were germinated and grown on a precut mesh (0.08″×0.025″ Opening; Mcmaster-Carr, Cat #1100T45) in 20 ml 0.5×MS media ([…] filtered without sucrose added) in a deep petri dish (100 mm×25 mm). The petri dishes were placed in a plastic container (236 Oz) with holes on both sides of the container and 100 ml MilliQ water to maintain high humidity. The plastic containers with plants were placed in a Percival incubator (25° C., 50% relative humidity).
# After 10 days, the mesh along with the seedlings on it was moved from the petri dish containing 0.5×MS media and excess media on mesh was dried by damping the roots on paper towels. The seedlings on the mesh were placed in a new deep petri dish containing formulation solution (20 ml) in the same large plastic container and Percival incubator. […] After 3 days, the mesh with seedlings was taken out of petri dish and the roots were washed with MilliQ water 2 times and placed on a paper towel to blot off excess water. […]
# Five THW larvae were placed on the tomato seedlings on mesh in each petri dish and the petri dish was placed in a large plastic container (101 Oz). The insect mortality was scored after 2 days, and the mortality was normalized against negative control (water treatment) to calculate the % larval control.
# fall army worms (FAW) = assay: Corn seedling root application, fall army worm infestation; assay type: in vivo; conditions: for plant mass / fresh weight: in vivo; for FAW mortality: two days post-infestation
# Protocol: Two hundred corn seeds of the MBS Hybrid line are sterilized in 15% bleach sterilization solution by placing 50 seeds each in 4 separate 50 mL Falcon tubes and adding 25 mL sterilization solution into each tube. The tubes containing seeds are shaken on an orbital shaker at low speed for 15 min, after which the seeds are rinsed 3 times with sterile MilliQ water in the biological safety cabinet to ensure sterility. Six seeds are then selected from each tube and placed into CYG germination pouches (PhytoAB ca #CYG-38 LB) with 50 ml of sterile DI water. Seeds are allowed to germinate in the dark for 3 days at 25° C. and 60% relative humidity. After 3 days seedlings are moved to climate-controlled chambers with a light: dark cycle of 16:8 at 25° C. and 60% RH. At this time 25 ml of treatment solutions suspended in Hoagland's solution (Sigma-Alderich H2395-1L, 1.3 g/L, pH 6.5) are added to germination pouches. […] Seedlings are allowed to grow and uptake solution for 3 days before FAW infestation.
# Six-day-old plants are infested with non-diapausing FAW at a rate of two 2nd instar larvae per plant. […] Before infestation germination pouches are sealed to prevent FAW from making direct contact with nutrient and NLP solutions. FAW are then allowed to feed on plants for a duration of 2 days in a Percival incubator (25° C., 50% RH, 16:8 Light: dark cycle).
# FAW mortality is scored two days post-infestation by removing larvae from plants and probing 3 times. Larvae that are unresponsive to probing or not recovered are considered dead and the proportion of surviving larvae over initial infestation numbers are compared across treatments. Plant mass is also recorded by weighing individual seedlings after larvae are removed and average mass of seedlings are compared across treatments.
# WCRW [2] = assay: Field-scale in-furrow treatment, open field trial (Example 53); assay type: in vivo, western corn rootworm (WCRW); conditions: 2 mg/ml
# WCRW [3] = assay: Small scale (green house 10 inch pot) in-furrow assay and dose-response; assay type: in vivo, western corn rootworm (WCRW); conditions: 2 mg/ml DE, in-furrow 3 ml, day 28
# Protocol: Jumbo cotton balls were packed into the bottom of 10″ tall and 2.7″ diameter cylindrical containers. Wide straws were inserted for later use during the infestation process, then packed with ~660 g of silt loam soil. Soil was then watered with about 150 ml of water in three 50 ml increments 24 hrs before planting. A hole was made at a depth of 1.5 inch from the top of the soil. […] The particle size, PDI and zeta potential of these NLPs are similar to those prepared with 80 ug/ml of DE in the suspension (Table 8). The treatments were added around the edge of the hole for planting. A seed was then planted in the hole and covered with soil. Containers with seeds were then placed in the greenhouse to continue growing for 7 days until ready for infestation.
# 2nd instar WCRW larvae were shipped from the supplier (Crop Characteristic Inc., Farmington, MN USA) and stored at 10° C. until ready for use (less than a week). The 1st and 2nd infestations were conducted 7 and 14 days after seed planting, respectively. For each infestation, approximately 10 larvae were transferred to 0.5 ml microcentrifuge tube and released into soil via dropping the tube with the open mouth facing down into straws inserted when the pots were filled with soil. […]
# The fresh weight for each whole seedling was measured using a scale and recorded.
# [4] = UV stability assay of deltamethrin in NLPs; assay type: physicochemical
# From the text: In addition, the four NLP formulations were also mixed with lignosulfonate (Borresperse NA, Borregaard), a widely used UV absorption agent at 3% final concentration, ten samples were exposed to UV light, and ten represented control samples that were not exposed to UV light.
# For the samples to be exposed to UV exposure, the cap of the Eppendorf tube was removed, and a single layer of Saran wrap (SC Johnson) was pulled across the top and secured with a rubber band. For the control samples, the Eppendorf tube was capped and wrapped entirely in aluminum foil to completely block UV radiation.
# All samples were placed 15 cm below the UV light (Hortilux PowerVEG Full Spectrum with UV Bulb, Growershouse, Cat #901678) with the UV radiation intensity at round 150 milliwatts per square centimeter (mW/cm^2). For each treatment, two samples were analyzed by LC-MS at t=0 (immediately after preparation), at day 1, day 2, day 3, and day 6. For each timepoint two UV samples and 2 control samples were removed for analysis by LC-MS/MS. Prior to analysis, the samples were diluted to 1 ml with methanol in the original 2 mL Eppendorf tubes. A further 100× dilution was performed in methanol and the samples were transferred to HPLC vials for analysis by LC-MS.
# Fusarium oxysporum = assay: Resazurin based Fusarium inhibition assay; assay type: cell-based; conditions: 24 hr incubation, compared to negative controls (DMSO)
# Protocol: The purpose of this assay was to quantify the effect of encapsulation of AZO, an antifungal agent, in NLP particles on its efficacy against a fungal pathogen (e.g., Fusarium oxysporum). Encapsulated AZO was compared to unencapsulated counterparts to determine if there is any change in efficacy. Formulations were tested in a 96-well plate and incubated with F. oxysporum conidia (spores) for 24 hr, after which resazurin dye was added. After 4 hr of incubation the color change of resazurin from blue to a fluorescent pink due to fungal respiration was assessed spectrophotometrically and the percent inhibition of respiration, as a measure of fungal growth, was determined by comparison to a conidia-only negative control. […] Fusarium oxysporum was cultured on 50% potato dextrose broth (PDB) agar plates. Using a pipette tip, a small mycelium aliquot was transferred to a 50-mL flask containing carboyxymethyl cellulose medium (CMC). […] Conidia were counted in the resuspended pellet using a hemocytometer, and diluted to 1×10^6 conidia/mL in 20% glycerol solution, from which a 1×10^5 conidia/mL working solution was prepared. […] After 24 h, 10 μL of PrestoBlue reagent was added to each well of the plate, followed by 4 h incubation, after which the fluorescence was read at 570/620 nm with a read height of 7 mm.
# whiteflies = assay: Tomato seedling root treatment, whitefly exposure; assay type: in vivo; conditions: after 7 days
# Protocol: Tomato seeds (N=14) are germinated and grown on a precut mesh (0.08″×0.025″ Opening; Mcmaster-Carr, Cat #1100T45) in 20 ml ½ MS media ([…] filtered without sucrose added) in a deep petri dish (100 mm×25 mm). The petri dishes are placed in a large plastic container (Sistema; 236 Oz) with holes on both sides of the container and 100 ml MilliQ water to maintain high humidity. Large plastic containers are placed in a Percival incubator (25° C., 50% RH). After 10 days, the mesh along with the seedlings on it is moved from the petri dish containing half strength MS media, and excess media on mesh is dried by blotting the roots on paper towels. […] After 3 days, the mesh with seedlings is taken out of petri dish and the roots are washed with MilliQ water 2 times and placed on a paper towel to blot off excess water. The mesh with tomato seedlings is transferred to a new petri dish with 25 ml of 1% phytogel (P8169-1 KG, Sigma-Aldrich).
# From a whitefly infested plant in a rearing cage, leaves that are infested with about 200 white flies are excised using scissors and placed in a petri dish. The petri dish is placed at the base of the tomato plants on the phytagel taking care to not damage the tomato plant roots. The boxes with the tomato plant and the whiteflies are placed in an incubator with 16 h light/8 hr dark photoperiod, 26° C. and 50% humidity. […]
# tomato hornworm (THW) = assay: Tomato seed priming, tomato hornworm infestation; assay type: in vivo; conditions: seed priming 24 hr
# Protocol: Tomato seeds are surface-sterilized by 1 ml 25% Bleach with 0.025% Triton X-100 in 1.5 ml centrifuge tube, then washed 3 times with 1 ml sterile water. Tomato seeds (N=50) are primed in 0.3 ml of below treatment solutions in a 1.5 ml centrifuge tube for 24 hr.
# The primed tomato seeds (N=14) are germinated and grown on a precut mesh (0.08″×0.025″ Opening; Mcmaster-Carr) in 20 ml half strength Murashige and Skoog Basal Medium (MP Bio, Cat #0926231—CF) in a deep petri dish (100 mm×25 mm). The petri dishes are placed in large plastic container (236 Oz) with holes on both sides of the container and 100 ml MilliQ water to maintain high humidity. The containers are placed in a Percival incubator (about 25° C., 50% relative humidity). After 10 days, the mesh along with the seedlings on it is moved from the petri dish containing half strength MS media and excess media on mesh is dried by damping the roots on paper towels. After 3 days, the mesh with seedlings is removed from the petri dish and the roots are washed twice with MilliQ water and placed on paper towel to blot off excess water. The mesh with tomato seedlings is transferred to a new petri dish with 25 ml of 1% Phytagel (P8169-1 KG, Sigma-Aldrich). […]
# The insect mortality is scored after 2 days, and the mortality is normalized against negative control (water treatment) to calculate the % larval control.
Compound,phytotoxicity to tomato seedlings [1],phytotoxicity (Tomato Horn Worm (THW)),plant mass / fresh weight (fall army worms (FAW)),FAW mortality (fall army worms (FAW)),root injury rating (0 to 3) (WCRW [2]),protection of whole plant mass and root mass from WCRW (WCRW [3]),"Repeat 1 (deltamethrin concentration) ([4]; Repeat 1, initial concentration, LC-MS) [µg/mL]","Repeat 2 (deltamethrin concentration) ([4]; Repeat 2, initial concentration, LC-MS) [µg/mL]",deltamethrin retention rate (actual deltamethrin/input deltamethrin) ([4]; after 6 days of UV exposure (figure legend)) [%],"Initial deltamethrin Concentration ([4]; mean of Repeat 1 and 2, LC-MS at t=0, before UV exposure) [µg/mL]",minimum amount required for >90% inhibition of Fusarium (Fusarium oxysporum) [µg/mL],number of live whiteflies (whiteflies),insect mortality and stunting (tomato hornworm (THW))
CC1(C)[C@H](C(=O)O[C@H](C#N)c2cccc(Oc3ccccc3)c2)[C@@H]1C=C(Br)Br [Deltamethrin],caused phytotoxicity to the tomato seedlings,phytotoxicity (wilting and chlorosis of plant tissue),fresh weight comparable to the water treated plants,none or very low mortality,higher root damage than the NLP644 comprising deltamethrin at 2 mg/ml treatment,less effective in protecting whole plant mass,104,114,15,109,,,
CO/C=C(/C(=O)OC)c1ccccc1Oc1cc(Oc2ccccc2C#N)ncn1 [azoxystrobin],,,,,,,,,,,5,,
CN/C(=N\[N+](=O)[O-])NCc1cnc(Cl)s1 [clothianidin],,,plant mass is the highest,FAW mortality is the highest,,,,,,,,significantly lower,significantly higher mortality and stunting
